By IC50 is commonly meant the midpoint of a concentration-inhibition curve.

Data on 24 compounds can be found in US20260355196A1, “INHIBITORS AND DEGRADERS OF PIP4K PROTEIN” (Larkspur Biosciences, Inc., priority 2023, published 2026).

This assay addresses T1, PIP4K2C (Homo sapiens, UniProt Q8TBX8).
T1 sequence (Q8TBX8 1-421): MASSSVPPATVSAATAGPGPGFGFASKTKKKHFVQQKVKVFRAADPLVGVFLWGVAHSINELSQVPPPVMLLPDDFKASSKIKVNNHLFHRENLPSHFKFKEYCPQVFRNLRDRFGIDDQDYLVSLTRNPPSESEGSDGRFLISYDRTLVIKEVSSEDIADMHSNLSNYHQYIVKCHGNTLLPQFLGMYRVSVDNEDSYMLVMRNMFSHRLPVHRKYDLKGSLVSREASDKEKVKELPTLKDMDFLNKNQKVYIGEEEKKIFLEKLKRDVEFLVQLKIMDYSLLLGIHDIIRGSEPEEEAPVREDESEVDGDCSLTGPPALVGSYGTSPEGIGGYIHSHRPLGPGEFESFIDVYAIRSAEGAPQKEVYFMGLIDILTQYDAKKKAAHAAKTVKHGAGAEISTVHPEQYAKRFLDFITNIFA
Description: Enzyme Binding Assay (KINOMEscan): active site-directed competition binding to an immobilized ligand. More on the design: purchased Eurofins DiscoverX, San Diego, CA 87-0007-1094. As to conditions: 11-point dose response, duplicate, top concentration 5 micromolar; read-out: Pip4k2c Kd: IC50. The gist of the method: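 Active site-directed competition binding against an immobilized ligand. 11-point dose-response in duplicate, top concentration 5 micromolar; IC50 from a Hill equation fitted by the Levenberg-Marquardt algorithm.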
As to `NC(=O)[C@H]1CC[C@H](Nc2ncc(F)c(-c3cccc(N4CCC(O)CC4)c3)n2)CC1` [Compound 251, trans-4-((5-fluoro-4-(3-(4-hydroxypiperidin-1-yl)phenyl)pyrimidin-2-yl)amino)cyclohexane-1-carboxamide], the half-inhibitory concentration (IC50) is less than 500 nM. The same measure for `CC(=O)N[C@H]1CC[C@H](Nc2ncc(F)c(-c3cccc(C(=O)N4CC[C@H](O)C4)c3)n2)CC1` [Compound 252, trans-N-[4-[[5-fluoro-4-[3-[(3S)-3-hydroxypyrrolidine-1-carbonyl]phenyl]pyrimidin-2-yl]amino]cyclohexyl]acetamide]: less than 500 nM; for `CC(=O)N[C@H]1CC[C@H](Nc2ncc(F)c(-c3ccnc(N4CCOC4=O)c3)n2)CC1` [Compound 253, trans-N-((1r,4r)-4-((5-fluoro-4-(2-(2-oxooxazolidin-3-yl)pyridin-4-yl)pyrimidin-2-yl)amino)cyclohexyl)acetamide]: less than 500 nM. On to `NC(=O)[C@H]1CC[C@H](Nc2ncc(F)c(-c3cccc(-c4ccc[nH]c4=O)c3)n2)CC1` [Compound 254, trans-(1r,4r)-4-((5-fluoro-4-(3-(2-oxo-1,2-dihydropyridin-3-yl)phenyl)pyrimidin-2-yl)amino)cyclohexane-1-carboxamide], for which the IC50 is less than 500 nM. The same measure for `CC(=O)N[C@H]1CC[C@H](Nc2ncc(F)c(-c3cccc(-c4ccc[nH]c4=O)c3)n2)CC1` [Compound 255, N-(trans-4-((5-fluoro-4-(3-(2-oxo-1,2-dihydropyridin-3-yl)phenyl)pyrimidin-2-yl)amino)cyclohexyl)acetamide]: less than 500 nM; for `CC(=O)N[C@H]1CC[C@H](Nc2ncc(F)c(-c3cccc(N4CCCCC4=O)c3)n2)CC1` [Compound 256, trans-N-(4-((5-fluoro-4-(3-(2-oxopiperidin-1-yl)phenyl)pyrimidin-2-yl)amino)cyclohexyl)acetamide]: less than 500 nM.

As for `CC(=O)N[C@H]1CC[C@H](Nc2ncc(F)c(-c3ccnc(N4CCCCC4=O)c3)n2)CC1` [Compound 257, trans-N-(-4-((5-fluoro-4-(2-(2-oxopiperidin-1-yl)pyridin-4-yl)pyrimidin-2-yl)amino)cyclohexyl)acetamide], the IC50 was less than 500 nM.

For `NC(=O)[C@H]1CC[C@H](Nc2ncc(F)c(-c3ccnc(N4CCCCC4=O)c3)n2)CC1` [Compound 258, trans-4-((5-fluoro-4-(2-(2-oxopiperidin-1-yl)pyridin-4-yl)pyrimidin-2-yl)amino)cyclohexane-1-carboxamide], the IC50 was less than 500 nM. The same measure for `NC(=O)[C@H]1CC[C@H](Nc2ncc(F)c(-c3cccc(C(=O)N4CC[C@H](O)C4)c3)n2)CC1` [Compound 259, trans-(S)-4-((5-fluoro-4-(3-(3-hydroxypyrrolidine-1-carbonyl)phenyl)pyrimidin-2-yl)amino)cyclohexane-1-carboxamide]: less than 500 nM; for `CC(=O)N[C@H]1CC[C@H](Nc2ncc(F)c(-n3cc(-n4ccccc4=O)cn3)n2)CC1` [Compound 260, trans-N-((1r,4r)-4-((5-fluoro-4-(4-(2-oxopyridin-1 (2H)-yl)-1H-pyrazol-1-yl)pyrimidin-2-yl)amino)cyclohexyl)acetamide]: 1000 to 5000 nM.

Consider `CC(=O)N[C@H]1CC[C@H](Nc2ncc(F)c(-c3ccnc(N4CCCC4=O)c3)n2)CC1` [Compound 261, trans-N-(4-((5-fluoro-4-(2-(2-oxopyrrolidin-1-yl)pyridin-4-yl)pyrimidin-2-yl)amino)cyclohexyl)acetamide], for which the IC50 is less than 500 nM.

Turning to `NC(=O)[C@H]1CC[C@H](Nc2ncc(F)c(-c3ccnc(N4CCCC4=O)c3)n2)CC1` [Compound 262, trans-(1r,4r)-4-((5-fluoro-4-(2-(2-oxopyrrolidin-1-yl)pyridin-4-yl)pyrimidin-2-yl)amino)cyclohexane-1-carboxamide], the IC50 was less than 500 nM. Turning to `NC(=O)[C@H]1CC[C@H](Nc2ncc(F)c(-c3ccnc(N4CCOC4=O)c3)n2)CC1` [Compound 263, trans-(1r,4r)-4-((5-fluoro-4-(2-(2-oxooxazolidin-3-yl)pyridin-4-yl)pyrimidin-2-yl)amino)cyclohexane-1-carboxamide], the IC50 is less than 500 nM. On to `NC(=O)[C@H]1CC[C@H](Nc2ncc(F)c(-c3cccc(N4CCCCC4=O)c3)n2)CC1` [Compound 264, trans-4-((5-fluoro-4-(3-(2-oxopiperidin-1-yl)phenyl)pyrimidin-2-yl)amino)cyclohexane-1-carboxamide], for which the IC50 is less than 500 nM. For `CC(=O)N[C@H]1CC[C@H](Nc2ncc(F)c(-c3ccnc(-n4ccccc4=O)c3)n2)CC1` [Compound 265, trans-N-(4-((5-fluoro-4-(2-oxo-2H-[1,2′-bipyridin]-4′-yl)pyrimidin-2-yl)amino)cyclohexyl)acetamide], the concentration for half-maximal inhibition (IC50) was less than 500 nM. The same measure for `CC(=O)N[C@H]1CC[C@H](Nc2ncc(F)c(-c3ccnc(N4CCCOC4=O)c3)n2)CC1` [Compound 266, trans-N-(4-((5-fluoro-4-(2-(2-oxo-1,3-oxazinan-3-yl)pyridin-4-yl)pyrimidin-2-yl)amino)cyclohexyl)acetamide]: less than 500 nM; for `CC(=O)N[C@H]1CC[C@H](Nc2ncc(F)c(-c3cccc(N4CCOCC4=O)c3)n2)CC1` [Compound 267, trans-N-(4-((5-fluoro-4-(3-(3-oxomorpholino)phenyl)pyrimidin-2-yl)amino)cyclohexyl)acetamide]: less than 500 nM. In the case of `NC(=O)[C@H]1CC[C@H](Nc2ncc(F)c(-c3cccc(N4CCOCC4=O)c3)n2)CC1` [Compound 268, trans-4-((5-fluoro-4-(3-(3-oxomorpholino)phenyl)pyrimidin-2-yl)amino)cyclohexane-1-carboxamide], the IC50 is less than 500 nM. Take `CC(=O)N[C@H]1CC[C@H](Nc2ncc(F)c(-c3cccc(N4CCOCC4=O)n3)n2)CC1` [Compound 270, trans-N-(4-((5-fluoro-4-(6-(3-oxomorpholino)pyridin-2-yl)pyrimidin-2-yl)amino)cyclohexyl)acetamide]: the IC50 was less than 500 nM. The same measure for `NC(=O)[C@H]1CC[C@H](Nc2ncc(F)c(-c3cccc(N4CCOCC4=O)n3)n2)CC1` [Compound 271, trans-4-((5-fluoro-4-(6-(3-oxomorpholino)pyridin-2-yl)pyrimidin-2-yl)amino)cyclohexane-1-carboxamide]: less than 500 nM; for `CC(=O)N[C@H]1CC[C@H](Nc2ncc(F)c(-c3ccnc(N4CCOCC4=O)c3)n2)CC1` [Compound 272, trans-N-(4-((5-fluoro-4-(2-(3-oxomorpholino)pyridin-4-yl)pyrimidin-2-yl)amino)cyclohexyl)acetamide]: less than 500 nM; for `NC(=O)[C@H]1CC[C@H](Nc2ncc(F)c(-c3ccnc(N4CCOCC4=O)c3)n2)CC1` [Compound 273, trans-4-((5-fluoro-4-(2-(3-oxomorpholino)pyridin-4-yl)pyrimidin-2-yl)amino)cyclohexane-1-carboxamide]: less than 500 nM.

For `NC(=O)[C@H]1CC[C@H](Nc2ncc(F)c(-c3cccc(N4CCCCC4=O)n3)n2)CC1` [Compound 274, trans-4-((5-fluoro-4-(6-(2-oxopiperidin-1-yl)pyridin-2-yl)pyrimidin-2-yl)amino)cyclohexane-1-carboxamide], the IC50 is less than 500 nM. The same measure for `CC(=O)N1CCC(Nc2ncc(F)c(-c3cccc(N4CCOCC4)c3)n2)CC1` [Compound 606, 1-[4-[[5-fluoro-4-(3-morpholinophenyl)pyrimidin-2-yl]amino]-1-piperidyl]ethanone]: less than 500 nM.
